Target: T1, TrkA (Homo sapiens, UniProt P04629)
T1 construct: aa 441-796; His; purchased Invitrogen PV3144
Experiment: Isolated TRK enzyme assay (HTRF KinEASE-TK kit), PV3144 TrkA enzyme assay
Type: biochemical
Settings: PV3144 TrkA enzyme assay, recombinant His-tagged cytoplasmic domain aa 441-796, 4 nM enzyme, 40 uM ATP; arithmetic mean where more than one reading; read-out: Trka enzyme (IC50)
Method in brief: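 Recombinant His-tagged cytoplasmic domain of human TrkA, preactivated with ATP for 20 min, then 20 min with compound before biotinylated TK substrate (1 uM final) at room temperature. HTRF read at 665/620 nm; % inhibition normalised to reference-compound and DMSO controls, IC50 from sigmoid fit, mean of replicates.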

T1 sequence (P04629 441-796): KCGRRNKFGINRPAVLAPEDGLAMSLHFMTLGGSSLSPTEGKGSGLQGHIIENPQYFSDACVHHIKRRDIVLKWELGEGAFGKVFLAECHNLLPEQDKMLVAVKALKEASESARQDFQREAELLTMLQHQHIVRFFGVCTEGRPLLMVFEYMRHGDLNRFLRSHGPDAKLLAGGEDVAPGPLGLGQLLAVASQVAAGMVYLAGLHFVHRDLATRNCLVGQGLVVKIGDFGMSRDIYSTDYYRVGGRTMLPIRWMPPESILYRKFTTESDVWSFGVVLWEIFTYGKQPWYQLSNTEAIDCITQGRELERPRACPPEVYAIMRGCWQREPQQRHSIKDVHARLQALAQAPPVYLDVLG

SMILES	IC50 [µM]
C[C@@H](CO)n1cc(C(=O)c2cc(NC(=O)Cc3ccc(F)cn3)ccn2)c2cncnc21 [Example 18, 2-(5-fluoropyridin-2-yl)-N-[2-({7-[(2S)-1-hydroxypropan-2-yl]-7H-pyrrolo[2,3-d]pyrimidin-5-yl}carbonyl)pyridin-4-yl]acetamide]	0.202
CC(C)c1ccnn1CC(=O)Nc1cc(C(=O)c2cn(C(C)C)c3ncncc23)ccn1 [Example 148, 2-[5-(propan-2-yl)-1H-pyrazol-1-yl]-N-(4-{[7-(propan-2-yl)-7H-pyrrolo[2,3-d]pyrimidin-5-yl]carbonyl}pyridin-2-yl)acetamide]	0.185
Cc1cc(C(=O)c2cn(C(C)C)c3ncncc23)cc(NC(=O)Cc2ccc(C#N)cc2)n1 [Example 76, 2-(4-cyanophenyl)-N-(6-methyl-4-{[7-(propan-2-yl)-7H-pyrrolo[2,3-d]pyrimidin-5-yl]carbonyl}pyridin-2-yl)acetamide]	0.315
CC(C)n1cc(C(=O)c2ccnc(NC(=O)Cc3cccc(OC(F)(F)F)c3)c2)c2cncnc21 [Example 154, N-(4-{[7-(propan-2-yl)-7H-pyrrolo[2,3-d]pyrimidin-5-yl]carbonyl}pyridin-2-yl)-2-[3-(trifluoromethoxy)phenyl]acetamide]	0.0124
O=C(Cc1ccccc1OC(F)(F)F)Nc1cc(C(=O)c2cn(CCO)c3ncncc23)ccn1 [Example 134, N-(4-{[7-(2-hydroxyethyl)-7H-pyrrolo[2,3-d]pyrimidin-5-yl]carbonyl}pyridin-2-yl)-2-[2-(trifluoromethoxy)phenyl]acetamide]	0.583
CC(C)n1cc(C(=O)c2ccnc(NC(=O)Cc3ccc(C#N)cc3)c2)c2cncnc21 [Example 68, 2-(4-cyanophenyl)-N-(4-{[7-(propan-2-yl)-7H-pyrrolo[2,3-d]pyrimidin-5-yl]carbonyl}pyridin-2-yl)acetamide]	0.051
COc1ccc(CC(=O)Nc2cc(C(=O)c3cn(C(C)C)c4ncncc34)ccn2)cc1 [Example 161, 2-(4-methoxyphenyl)-N-(4-{[7-(propan-2-yl)-7H-pyrrolo[2,3-d]pyrimidin-5-yl]carbonyl}pyridin-2-yl)acetamide]	0.0608
Cc1cc(C)n(CC(=O)Nc2cc(C(=O)c3cn(CCO)c4ncncc34)ccn2)n1 [Example 139, 2-(3,5-dimethyl-1H-pyrazol-1-yl)-N-(4-{[7-(2-hydroxyethyl)-7H-pyrrolo[2,3-d]pyrimidin-5-yl]carbonyl}pyridin-2-yl)acetamide]	0.76
N#Cc1ccc(CC(=O)Nc2cc(C(=O)c3cn(C4CC4)c4ncncc34)ccn2)cc1 [Example 175, 2-(4-cyanophenyl)-N-{4-[(7-cyclopropyl-7H-pyrrolo[2,3-d]pyrimidin-5-yl)carbonyl]pyridin-2-yl}acetamide]	0.407
CC(CO)(CO)n1cc(C(=O)c2cc(NC(=O)Cc3ccc(Cl)cn3)ccn2)c2cncnc21 [Example 106, 2-(5-chloropyridin-2-yl)-N-(2-{[7-(1,3-dihydroxy-2-methylpropan-2-yl)-7H-pyrrolo[2,3-d]pyrimidin-5-yl]carbonyl}pyridin-4-yl)acetamide]	0.663
CC(C)n1cc(C(=O)c2cc(NC(=O)Cc3ccc(Cl)cc3)ccn2)c2cncnc21 [Example 47, 2-(4-Chloro-phenyl)-N-[2-(7-isopropyl-7H-pyrrolo[2,3-d]pyrimidine-5-carbonyl)-pyridin-4-yl]-acetamide]	0.00571
O=C(Cc1ccc(F)cc1)Nc1cc(C(=O)c2cn(CCO)c3ncncc23)ccn1 [Example 145, 2-(4-fluorophenyl)-N-(4-{[7-(2-hydroxyethyl)-7H-pyrrolo[2,3-d]pyrimidin-5-yl]carbonyl}pyridin-2-yl)acetamide]	0.484
CC(C)n1cc(C(=O)c2ccnc(NC(=O)Cc3cccc(Cl)c3)c2)c2cncnc21 [Example 155, 2-(3-chlorophenyl)-N-(4-{[7-(propan-2-yl)-7H-pyrrolo[2,3-d]pyrimidin-5-yl]carbonyl}pyridin-2-yl)acetamide]	0.0143
O=C(Cc1ccc(Cl)cc1)Nc1cc(C(=O)c2cn([C@H]3CC[C@@H](O)CC3)c3ncncc23)ccn1 [Example 6, 2-(4-chlorophenyl)-N-(4-{[7-(cis-4-hydroxycyclohexyl)-7H-pyrrolo[2,3-d]pyrimidin-5-yl]carbonyl}pyridin-2-yl)acetamide]	0.0213
O=C(Cc1ccc(Cl)c(Cl)c1)Nc1cc(C(=O)c2cn(CCO)c3ncncc23)ccn1 [Example 138, 2-(3,4-dichlorophenyl)-N-(4-{[7-(2-hydroxyethyl)-7H-pyrrolo[2,3-d]pyrimidin-5-yl]carbonyl}pyridin-2-yl)acetamide]	0.0311
O=C(Cc1ccc(C(F)(F)F)c(F)c1)Nc1ccnc(C(=O)c2cn(C(CO)CO)c3ncncc23)c1 [Example 94, N-(2-{[7-(1,3-dihydroxypropan-2-yl)-7H-pyrrolo[2,3-d]pyrimidin-5-yl]carbonyl}pyridin-4-yl)-2-[3-fluoro-4-(trifluoromethyl)phenyl]acetamide]	0.922

SMILES	IC50 [µM]
CC(C)(CO)n1cc(C(=O)c2ccc(C#N)c(NC(=O)Cn3cc(C(F)(F)F)nn3)c2)c2cnc(N)nc21 [Example 12, N-(5-{[2-amino-7-(1-hydroxy-2-methylpropan-2-yl)-7H-pyrrolo[2,3-d]pyrimidin-5-yl]carbonyl}-2-cyanophenyl)-2-[4-(trifluoromethyl)-1H-1,2,3-triazol-1-yl]acetamide]	0.0607
CC(C)(CO)n1cc(C(=O)c2cc(NC(=O)Cc3ccc(Cl)cc3)ccn2)c2cnc(N)nc21 [Example 48, N-{2-[2-Amino-7-(2-hydroxy-1,1-dimethyl-ethyl)-7H-pyrrolo[2,3-d]pyrimidine-5-carbonyl}-pyridin-4-yl]-2-(4-chloro-phenyl)-acetamide]	0.00729
Cc1cc(C(F)(F)F)nn1CC(=O)Nc1cc(C(=O)c2cn(C(C)C)c3nc(O)ncc23)ccn1 [Example 125, N-(4-{[2-hydroxy-7-(propan-2-yl)-7H-pyrrolo[2,3-d]pyrimidin-5-yl]carbonyl}pyridin-2-yl)-2-[5-methyl-3-(trifluoromethyl)-1H-pyrazol-1-yl]acetamide]	0.25
N#Cc1ccc(CC(=O)Nc2cc(C(=O)c3cn([C@H]4CC[C@H](O)CC4)c4ncncc34)ccn2)cc1 [Example 2, 2-(4-cyanophenyl)-N-(4-{[7-(trans-4-hydroxycyclohexyl)-7H-pyrrolo[2,3-d]pyrimidin-5-yl]carbonyl}pyridine-2-yl)acetamide]	0.084
CC(C)n1cc(C(=O)c2cc(NC(=O)Cn3ccc(C4CC4)n3)ccn2)c2cncnc21 [Example 83, 2-(3-cyclopropyl-1H-pyrazol-1-yl)-N-(2-{[7-(propan-2-yl)-7H-pyrrolo[2,3-d]pyrimidin-5-yl]carbonyl}pyridin-4-yl)acetamide]	0.0102
CC(C)n1cc(C(=O)c2ccnc(NC(=O)Cc3ccc(F)cc3)c2)c2cncnc21 [Example 153, 2-(4-fluorophenyl)-N-(4-{[7-(propan-2-yl)-7H-pyrrolo[2,3-d]pyrimidin-5-yl]carbonyl}pyridin-2-yl)acetamide]	0.042
CC(C)n1cc(C(=O)c2ccnc(NC(=O)Cc3ccccn3)c2)c2cncnc21 [Example 163, N-(4-{[7-(propan-2-yl)-7H-pyrrolo[2,3-d]pyrimidin-5-yl]carbonyl}pyridin-2-yl)-2-(pyridin-2-yl)acetamide]	3.62
C[C@@H](CO)n1cc(C(=O)c2cc(NC(=O)Cn3cc(C4CC4)nn3)ccn2)c2cncnc21 [Example 30, 2-(4-cyclopropyl-1H-1,2,3-triazol-1-yl)-N-[2-({7-[(2S)-1-hydroxypropan-2-yl]-7H-pyrrolo[2,3-d]pyrimidin-5-yl}carbonyl)pyridin-4-yl]acetamide]	0.0897
CC(C)n1cc(C(=O)c2cc(NC(=O)Cc3ccc(C#N)cn3)ccn2)c2cncnc21 [Example 109, 2-(5-Cyanopyridin-2-yl)-N-{2-[(7-isopropyl-7H-pyrrolo[2,3-d]pyrimidin-5-yl)carbonyl]pyridin-4-yl}acetamide]	0.0536
CC(C)c1cn(CC(=O)Nc2ccnc(C(=O)c3cn([C@@H](C)CO)c4ncncc34)c2)nn1 [Example 29, N-[2-({7-[(2S)-1-hydroxypropan-2-yl]-7H-pyrrolo[2,3-d]pyrimidin-5-yl}carbonyl)pyridin-4-yl]-2-[4-(propan-2-yl)-1H-1,2,3-triazol-1-yl]acetamide]	0.0742
C[C@H](CO)n1cc(C(=O)c2cc(NC(=O)Cc3ccc(F)cn3)ccn2)c2cncnc21 [Example 27, 2-(5-fluoropyridin-2-yl)-N-[2-({7-[(2R)-1-hydroxypropan-2-yl]-7H-pyrrolo[2,3-d]pyrimidin-5-yl}carbonyl)pyridin-4-yl]acetamide]	0.139
CC(C)n1cc(C(=O)c2cc(NC(=O)Cc3cccc(S(C)(=O)=O)c3)ccn2)c2cnc(N)nc21 [Example 88, N-(2-{[2-amino-7-(propan-2-yl)-7H-pyrrolo[2,3-d]pyrimidin-5-yl]carbonyl}pyridin-4-yl)-2-[3-(methylsulfonyl)phenyl]acetamide]	0.0759
CC(C)(CO)n1cc(C(=O)c2cc(NC(=O)Cc3ccc(Cl)cn3)ccn2)c2cncnc21 [Example 58, 2-(5-chloropyridin-2-yl)-N-(2-{[7-(1-hydroxy-2-methylpropan-2-yl)-7H-pyrrolo[2,3-d]pyrimidin-5-yl]carbonyl}pyridin-4-yl)acetamide]	0.0116
Cc1cc(C)n(CC(=O)Nc2cc(C(=O)c3cn(C(C)C)c4ncncc34)ccn2)n1 [Example 152, 2-(3,5-dimethyl-1H-pyrazol-1-yl)-N-(4-{[7-(propan-2-yl)-7H-pyrrolo[2,3-d]pyrimidin-5-yl]carbonyl}pyridin-2-yl)acetamide]	0.0712
CC(C)n1cc(C(=O)c2ccnc(NC(=O)Cc3ccc(C#N)c(C(F)(F)F)c3)c2)c2cncnc21 [Example 71, 2-[4-cyano-3-(trifluoromethyl)phenyl]-N-(4-{[7-(propan-2-yl)-7H-pyrrolo[2,3-d]pyrimidin-5-yl]carbonyl}pyridin-2-yl)acetamide]	0.0492

Source: patent US20150218172A1, “Pyrrolo[2,3-D]Pyrimidine Tropomyosin-Related Kinase Inhibitors” (PFIZER LIMITED, priority 2012, published 2015)
